Target: T1, Human M4 (Homo sapiens, UniProt P08173)
T1 construct: expressed in transfected cells; host or cells: CHO-K1 (ATCC), co-transfected with chimeric G protein Gqi5
T1 sequence (P08173 1-479): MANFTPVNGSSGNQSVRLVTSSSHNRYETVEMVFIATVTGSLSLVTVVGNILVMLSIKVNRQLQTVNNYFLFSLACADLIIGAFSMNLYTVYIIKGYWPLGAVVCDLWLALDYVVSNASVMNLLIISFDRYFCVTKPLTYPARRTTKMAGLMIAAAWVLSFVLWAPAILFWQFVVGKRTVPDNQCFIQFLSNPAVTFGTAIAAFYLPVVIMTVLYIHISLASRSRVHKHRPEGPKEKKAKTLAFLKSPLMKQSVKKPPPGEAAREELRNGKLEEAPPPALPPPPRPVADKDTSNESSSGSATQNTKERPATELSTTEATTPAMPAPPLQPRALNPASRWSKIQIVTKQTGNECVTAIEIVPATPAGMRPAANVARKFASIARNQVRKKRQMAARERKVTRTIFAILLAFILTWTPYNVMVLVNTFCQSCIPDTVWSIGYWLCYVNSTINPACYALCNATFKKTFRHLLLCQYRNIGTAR
Assay: mAChR M4 cell-based functional assay (calcium flux, antagonism of EC80 acetylcholine response)
Details: M4/Gqi5/CHO-K1 cells; for remaining activity at 30 µM: CHO-K1, % ACh maximum at 30 μM, read-out: Human M4 Emin; for IC50: decrease of response elicited by EC80 acetylcholine
How it was run: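 CHO-K1 cells stably expressing human or rat M4 with Gqi5, Fluo-4 loaded; calcium measured by fluorescence ratio on FDSS. Compound added, then EC20 acetylcholine at 143 s and EC80 at 268 s; IC50 from decrease of EC80 response, four-parameter logistic fit.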

Structure (SMILES) | remaining activity at 30 µM [%] | IC50 [nM]
Fc1cc(F)c(F)c(-c2nnc(N[C@H]3C[C@@H]4CN(CCC5CCOCC5)C[C@@H]4C3)cc2C(F)F)c1 [compound 52, (3aR,5s,6aS)-N-(5-(difluoromethyl)-6-(2,3,5-trifluorophenyl)pyridazin-3-yl)-2-(2-(tetrahydro-2H-pyran-4-yl)ethyl)octahydrocyclopenta[c]pyrrol-5-amine] | 2 | 1.05
OC1(CN2C[C@H]3C[C@H](Nc4cc(C(F)F)c(-c5cc(F)cc(F)c5F)nn4)C[C@H]3C2)CCOCC1 [compound 55, 4-(((3aR,5s,6aS)-5-((5-(difluoromethyl)-6-(2,3,5-trifluorophenyl)pyridazin-3-yl)amino)hexahydrocyclopenta[c]pyrrol-2(1H)-yl)methyl)tetrahydro-2H-pyran-4-ol] | 2 | 3.12
Fc1cc(F)c(F)c(-c2nnc(N[C@H]3C[C@@H]4CN(C[C@H]5COCCO5)C[C@@H]4C3)cc2C(F)F)c1 [compound 57, (3aR,5s,6aS)-2-(((S)-1,4-dioxan-2-yl)methyl)-N-(5-(difluoromethyl)-6-(2,3,5-trifluorophenyl)pyridazin-3-yl)octahydrocyclopenta[c]pyrrol-5-amine] | 3 | 15.5
Cc1ccc(F)cc1-c1cc(C(F)F)c(N[C@H]2C[C@@H]3CN(CC4CCOCC4)C[C@@H]3C2)nn1 [compound 59, (3aR,5s,6aS)-N-(4-(difluoromethyl)-6-(5-fluoro-2-methylphenyl)pyridazin-3-yl)-2-((tetrahydro-2H-pyran-4-yl)methyl)octahydrocyclopenta[c]pyrrol-5-amine] | 3 | 1.2

Continued by falling IC50, values first:

remaining activity at 30 µM [%] | IC50 [nM] | Structure (SMILES)
2 | 19.1 | Fc1cc(F)c(F)c(-c2nnc(N[C@H]3C[C@@H]4CN(CC5CCCCC5)C[C@@H]4C3)cc2C(F)F)c1 [compound 53, (3aR,5s,6aS)-2-(cyclohexylmethyl)-N-(5-(difluoromethyl)-6-(2,3,5-trifluorophenyl)pyridazin-3-yl)octahydrocyclopenta[c]pyrrol-5-amine]
3 | 6.42 | Fc1ccc(F)c(-c2cc(C(F)F)c(N[C@H]3C[C@@H]4CN(CC5CCOCC5)C[C@@H]4C3)nn2)c1 [compound 58, (3aR,5s,6aS)-N-(4-(difluoromethyl)-6-(2,5-difluorophenyl)pyridazin-3-yl)-2-((tetrahydro-2H-pyran-4-yl)methyl)octahydrocyclopenta[c]pyrrol-5-amine]
1 | 3.42 | OC1(CN2C[C@H]3C[C@H](Nc4cc(C(F)F)c(-c5cc(F)cc(F)c5F)nn4)C[C@H]3C2)CCCCC1 [compound 54, 1-(((3aR,5s,6aS)-5-((5-(difluoromethyl)-6-(2,3,5-trifluorophenyl)pyridazin-3-yl)amino)hexahydrocyclopenta[c]pyrrol-2(1H)-yl)methyl)cyclohexan-1-ol]
2 | 0.66 | Fc1cc(F)c(F)c(-c2nnc(N[C@H]3C[C@@H]4CN(C[C@@H]5COCCO5)C[C@@H]4C3)cc2C(F)F)c1 [compound 56, (3aR,5s,6aS)-2-(((R)-1,4-dioxan-2-yl)methyl)-N-(5-(difluoromethyl)-6-(2,3,5-trifluorophenyl)pyridazin-3-yl)octahydrocyclopenta[c]pyrrol-5-amine]
2 | 0.66 | [2H]C([2H])(C1CCOCC1)N1C[C@H]2C[C@H](Nc3nnc(-c4cc(F)ccc4F)c(C)c3C)C[C@H]2C1 [compound 60, (3aR,5s,6aS)-N-(6-(2,5-difluorophenyl)-4,5-dimethylpyridazin-3-yl)-2-((tetrahydro-2H-pyran-4-yl)methyl-d2)octahydrocyclopenta[c]pyrrol-5-amine]
